# Data from patent US7138361B2, “Herbicidal heterocycles” (E. I. du Pont de Nemours and Company, priority 2000, dated 2006).
# Experiments:
# Type in all cases: in vivo
# [1] = tested on: barnyardgrass (Echinochloa crus-galli); test: Test A preemergence, soil drench; conditions: approx. eleven days
# Experimental: (§1) Seeds of barnyardgrass (Echinochloa crus-galli), crabgrass (Digitaria spp.), giant foxtail (Setaria viridis), morning glory (Ipomoea spp.), redroot pigweed (Amaranthus retroflexus) and velvetleaf (Abutilon theophrasti) were planted into a sandy loam soil and treated preemergence by soil drench with test chemicals formulated in a non-phytotoxic solvent mixture which included a surfactant. At the same time, these crop and weed species were also treated postemergence sprayed to runoff with test chemicals formulated in the same manner. Plants ranged in height from two to eighteen cm and were in the one- to two-leaf stage for the postemergence treatment. Treated plants and untreated controls were maintained in a greenhouse for approximately eleven days, after which time all treated plants were compared to untreated controls and visually evaluated for injury. Plant response ratings, summarized in Table A, are based on a 0 to 10 scale where 0 is no effect and 10 is complete control. A dash (-) response means no test results.
# [2] = tested on: crabgrass (Digitaria spp.); test: Test A preemergence, soil drench; conditions: approx. eleven days
# Experimental: as §1
# [3] = tested on: giant foxtail (Setaria viridis); test: Test A preemergence, soil drench; conditions: approx. eleven days
# Experimental: as §1
# [4] = tested on: morning glory (Ipomoea spp.); test: Test A preemergence, soil drench; conditions: Morningglory, approx. eleven days
# Experimental: as §1
# [5] = tested on: redroot pigweed (Amaranthus retroflexus); test: Test A preemergence, soil drench; conditions: approx. eleven days
# Experimental: as §1
# [6] = tested on: velvetleaf (Abutilon theophrasti); test: Test A preemergence, soil drench; conditions: approx. eleven days
# Experimental: as §1
# [7] = tested on: Surinam grass (Brachiaria decumbens); test: Test C postemergence
# How it was run: (§2)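 Visual 0–100 rating vs controls (0 = no effect, 100 = complete control) at 12–14 d, greenhouse. Compounds in non-phytotoxic solvent + surfactant; pre: sprayed after seeding; post: 1–4-leaf plants, 2–18 cm.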
# [8] = tested on: bermudagrass (Cynodon dactylon); test: Test C postemergence
# How it was run: as §2
# [9] = tested on: chickweed (Stellaria media); test: Test C postemergence
# How it was run: as §2
# [10] = tested on: common ragweed (Ambrosia elatior); test: Test C postemergence
# How it was run: as §2
# [11] = tested on: giant foxtail (Setaria faberii); test: Test C postemergence
# How it was run: as §2
# [12] = tested on: goosegrass (Eleusine indica); test: Test C postemergence
# How it was run: as §2
# [13] = tested on: johnsongrass (Sorghum halepense); test: Test C postemergence
# How it was run: as §2
# kochia (Kochia scoparia) = test: Test C postemergence
# How it was run: as §2
# [14] = tested on: lambsquarters (Chenopodium album); test: Test C postemergence
# How it was run: as §2
# [15] = tested on: morningglory (Ipomoea hederacea); test: Test C postemergence
# How it was run: as §2
# [16] = tested on: pigweed (Amaranthus retroflexus); test: Test C postemergence
# How it was run: as §2
# soybean (Glycine max) = test: Test C postemergence
# How it was run: as §2
# [17] = tested on: velvetleaf (Abutilon theophrasti); test: Test C postemergence
# How it was run: as §2
# [18] = tested on: woolly cupgrass (Eriochloa villosa); test: Test C postemergence
# How it was run: as §2
# [19] = tested on: yellow nutsedge (Cyperus esculentus); test: Test C postemergence
# How it was run: as §2
# [20] = Rate 62 g/ha, scale 0 to 100, 0 no effect, 100 complete control
# [21] = Rate 125 g/ha, scale 0 to 100, 0 no effect, 100 complete control
# [22] = Rate 250 g/ha, scale 0 to 100 (0 no effect, 100 complete control)
compound,measurement,setting,value
CCC(C)c1nn(C2CCN(c3cccc(C(F)(F)F)c3)C2=O)cc1Cl (stereo not drawn) [Compound 13],Plant response rating (visual injury vs untreated controls),[1]; Rate 500 g/ha,0
same,Plant response rating (visual injury vs untreated controls),[1]; Rate 2000 g/ha,10
same,Plant response rating (visual injury vs untreated controls),[2]; Rate 500 g/ha,0
same,Plant response rating (visual injury vs untreated controls),[2]; Rate 2000 g/ha,80
same,Plant response rating (visual injury vs untreated controls),[3]; Rate 500 g/ha,20
same,Plant response rating (visual injury vs untreated controls),[3]; Rate 2000 g/ha,90
same,Plant response rating (visual injury vs untreated controls),[4]; Rate 500 g/ha,0
same,Plant response rating (visual injury vs untreated controls),[4]; Rate 2000 g/ha,20
same,Plant response rating (visual injury vs untreated controls),[5]; Rate 500 g/ha,80
same,Plant response rating (visual injury vs untreated controls),[5]; Rate 2000 g/ha,100
same,Plant response rating (visual injury vs untreated controls),[6]; Rate 500 g/ha,0
same,Plant response rating (visual injury vs untreated controls),[6]; Rate 2000 g/ha,0
CC(C)c1ccn(C2OCN(c3cccc(C(F)(F)F)c3)C2=O)n1 (stereo not drawn) [Compound 27],Plant response rating (visual injury vs untreated controls),[1]; Rate 500 g/ha,100
same,Plant response rating (visual injury vs untreated controls),[1]; Rate 2000 g/ha,100
same,Plant response rating (visual injury vs untreated controls),[2]; Rate 500 g/ha,100
same,Plant response rating (visual injury vs untreated controls),[2]; Rate 2000 g/ha,90
same,Plant response rating (visual injury vs untreated controls),[3]; Rate 500 g/ha,100
same,Plant response rating (visual injury vs untreated controls),[3]; Rate 2000 g/ha,100
same,Plant response rating (visual injury vs untreated controls),[4]; Rate 500 g/ha,0
same,Plant response rating (visual injury vs untreated controls),[4]; Rate 2000 g/ha,20
same,Plant response rating (visual injury vs untreated controls),[5]; Rate 500 g/ha,100
same,Plant response rating (visual injury vs untreated controls),[5]; Rate 2000 g/ha,100
same,Plant response rating (visual injury vs untreated controls),[6]; Rate 500 g/ha,20
same,Plant response rating (visual injury vs untreated controls),[6]; Rate 2000 g/ha,10
CC(C)(C)c1ccn(C2CCN(c3cccc(I)c3)C2=O)n1 (stereo not drawn) [Compound 88],Plant response rating (visual injury vs untreated controls),[1]; Rate 500 g/ha,40
same,Plant response rating (visual injury vs untreated controls),[1]; Rate 2000 g/ha,100
same,Plant response rating (visual injury vs untreated controls),[2]; Rate 500 g/ha,80
same,Plant response rating (visual injury vs untreated controls),[2]; Rate 2000 g/ha,100
same,Plant response rating (visual injury vs untreated controls),[3]; Rate 500 g/ha,70
same,Plant response rating (visual injury vs untreated controls),[3]; Rate 2000 g/ha,100
same,Plant response rating (visual injury vs untreated controls),[4]; Rate 500 g/ha,0
same,Plant response rating (visual injury vs untreated controls),[4]; Rate 2000 g/ha,30
same,Plant response rating (visual injury vs untreated controls),[5]; Rate 500 g/ha,100
same,Plant response rating (visual injury vs untreated controls),[5]; Rate 2000 g/ha,100
same,Plant response rating (visual injury vs untreated controls),[6]; Rate 500 g/ha,0
same,Plant response rating (visual injury vs untreated controls),[6]; Rate 2000 g/ha,30
Cc1ccn(C2CCN(c3cccc(C(F)(F)F)c3)C2=O)n1 (stereo not drawn) [Compound 16],Plant response rating (visual injury vs untreated controls),[1]; Rate 500 g/ha,10
same,Plant response rating (visual injury vs untreated controls),[1]; Rate 2000 g/ha,70
same,Plant response rating (visual injury vs untreated controls),[2]; Rate 500 g/ha,100
same,Plant response rating (visual injury vs untreated controls),[2]; Rate 2000 g/ha,100
same,Plant response rating (visual injury vs untreated controls),[3]; Rate 500 g/ha,80
same,Plant response rating (visual injury vs untreated controls),[3]; Rate 2000 g/ha,90
same,Plant response rating (visual injury vs untreated controls),[4]; Rate 500 g/ha,0
same,Plant response rating (visual injury vs untreated controls),[4]; Rate 2000 g/ha,20
same,Plant response rating (visual injury vs untreated controls),[5]; Rate 500 g/ha,80
same,Plant response rating (visual injury vs untreated controls),[5]; Rate 2000 g/ha,100
same,Plant response rating (visual injury vs untreated controls),[6]; Rate 500 g/ha,10
same,Plant response rating (visual injury vs untreated controls),[6]; Rate 2000 g/ha,100
"CC(C)(C)c1ccn(C2CCN(c3cccc(C(F)(F)F)c3)C2=O)n1 (stereo not drawn) [Example 3, 3-[3-(1,1-dimethylethyl)-1H-pyrazol-1-yl]-1-[3-(trifluoromethyl)phenyl]-2-pyrrolidinone]",Plant response rating (visual injury vs untreated controls),[1]; Rate 250 g/ha,100
same,Plant response rating (visual injury vs untreated controls),[1]; Rate 1000 g/ha,100
same,Plant response rating (visual injury vs untreated controls),[2]; Rate 250 g/ha,100
same,Plant response rating (visual injury vs untreated controls),[2]; Rate 1000 g/ha,100
same,Plant response rating (visual injury vs untreated controls),[3]; Rate 250 g/ha,100
same,Plant response rating (visual injury vs untreated controls),[3]; Rate 1000 g/ha,100
same,Plant response rating (visual injury vs untreated controls),[4]; Rate 250 g/ha,0
same,Plant response rating (visual injury vs untreated controls),[4]; Rate 1000 g/ha,0
same,Plant response rating (visual injury vs untreated controls),[5]; Rate 250 g/ha,100
same,Plant response rating (visual injury vs untreated controls),[5]; Rate 1000 g/ha,100
same,Plant response rating (visual injury vs untreated controls),[6]; Rate 250 g/ha,0
same,Plant response rating (visual injury vs untreated controls),[6]; Rate 1000 g/ha,0
O=C1C(n2ccc(C3CC3)n2)SCN1c1cccc(C(F)(F)F)c1 (stereo not drawn) [Compound 26],Plant response rating (visual injury vs untreated controls),[1]; Rate 500 g/ha,100
same,Plant response rating (visual injury vs untreated controls),[1]; Rate 2000 g/ha,100
same,Plant response rating (visual injury vs untreated controls),[2]; Rate 500 g/ha,100
same,Plant response rating (visual injury vs untreated controls),[2]; Rate 2000 g/ha,100
same,Plant response rating (visual injury vs untreated controls),[3]; Rate 500 g/ha,100
same,Plant response rating (visual injury vs untreated controls),[3]; Rate 2000 g/ha,100
same,Plant response rating (visual injury vs untreated controls),[4]; Rate 500 g/ha,0
same,Plant response rating (visual injury vs untreated controls),[4]; Rate 2000 g/ha,30
same,Plant response rating (visual injury vs untreated controls),[5]; Rate 500 g/ha,100
same,Plant response rating (visual injury vs untreated controls),[5]; Rate 2000 g/ha,100
same,Plant response rating (visual injury vs untreated controls),[6]; Rate 500 g/ha,50
same,Plant response rating (visual injury vs untreated controls),[6]; Rate 2000 g/ha,40
CC(C)(C)c1ccn(C2SCN(c3cccc(C(F)(F)F)c3)C2=O)n1 (stereo not drawn) [Compound 1],Plant response rating (visual injury vs untreated controls),[1]; Rate 500 g/ha,90
same,Plant response rating (visual injury vs untreated controls),[1]; Rate 2000 g/ha,100
same,Plant response rating (visual injury vs untreated controls),[2]; Rate 500 g/ha,90
same,Plant response rating (visual injury vs untreated controls),[2]; Rate 2000 g/ha,100
same,Plant response rating (visual injury vs untreated controls),[3]; Rate 500 g/ha,90
same,Plant response rating (visual injury vs untreated controls),[3]; Rate 2000 g/ha,100
same,Plant response rating (visual injury vs untreated controls),[4]; Rate 500 g/ha,10
same,Plant response rating (visual injury vs untreated controls),[4]; Rate 2000 g/ha,80
same,Plant response rating (visual injury vs untreated controls),[5]; Rate 500 g/ha,100
same,Plant response rating (visual injury vs untreated controls),[5]; Rate 2000 g/ha,100
same,Plant response rating (visual injury vs untreated controls),[6]; Rate 500 g/ha,10
same,Plant response rating (visual injury vs untreated controls),[6]; Rate 2000 g/ha,70
CCC(C)c1ccn(C2SCN(c3cccc(C(F)(F)F)c3)C2=O)n1 (stereo not drawn) [Compound 20],"Plant response rating, Surinam grass",[7]; [20],0
same,"Plant response rating, Surinam grass",[7]; [21],0
same,"Plant response rating, Surinam grass",[7]; [22],0
same,"Plant response rating, Bermudagrass",[8]; [20],60
same,"Plant response rating, Bermudagrass",[8]; [21],90
same,"Plant response rating, Bermudagrass",[8]; [22],90
same,"Plant response rating, Chickweed",[9]; [20],50
same,"Plant response rating, Chickweed",[9]; [21],50
same,"Plant response rating, Chickweed",[9]; [22],70
same,"Plant response rating, Ragweed, Common",[10]; [21],30
same,"Plant response rating, Ragweed, Common",[10]; [22],30
same,"Plant response rating, Foxtail, Giant",[11]; [21],0
same,"Plant response rating, Foxtail, Giant",[11]; [22],70
same,"Plant response rating, Goosegrass",[12]; [21],20
same,"Plant response rating, Goosegrass",[12]; [22],40
same,"Plant response rating, Johnsongrass",[13]; [21],0
same,"Plant response rating, Johnsongrass",[13]; [22],80
same,"Plant response rating, Kochia",kochia (Kochia scoparia); [21],70
same,"Plant response rating, Kochia",kochia (Kochia scoparia); [22],70
same,"Plant response rating, Lambsquarters",[14]; [21],70
same,"Plant response rating, Lambsquarters",[14]; [22],80
same,"Plant response rating, Morningglory",[15]; [21],20
same,"Plant response rating, Morningglory",[15]; [22],20
same,"Plant response rating, Pigweed",[16]; [21],70
same,"Plant response rating, Pigweed",[16]; [22],80
same,"Plant response rating, Soybean",soybean (Glycine max); [21],20
same,"Plant response rating, Soybean",soybean (Glycine max); [22],20
same,"Plant response rating, Velvetleaf",[17]; [21],30
same,"Plant response rating, Velvetleaf",[17]; [22],30
same,"Plant response rating, Cupgrass, Woolly",[18]; [21],0
same,"Plant response rating, Cupgrass, Woolly",[18]; [22],0
same,"Plant response rating, Nutsedge",[19]; [21],0
same,"Plant response rating, Nutsedge",[19]; [22],0
